Laboratory results taken from patent US4007165A (priority 1974, dated 1977).
Where a name gives a salt, the structure may show the parent alone. Read-outs that look alike come from different tables or passages of the source.

What was measured:
[1] = Curing of unsaturated polyester-styrene resin
Description: An unsaturated polyester resin was made by reacting maleic anhydride (1.0 mole), phthalic anhydride (1.0 mole), and propylene glycol (2.2 moles) until an acid number of 45-50 was obtained. To this was added hydroquinone at a 0.013% concentration. Seven parts of this unsaturated polyester was diluted with 3 parts of monomeric styrene to obtain a homogeneous blend having a viscosity of 13.08 poise and a specific gravity of 1.14.
To 20 grams of this blend was added 0.128 gram of alpha-(tert.-butylazo)isobutyronitrile and the resultant composition placed in a constant temperature bath at 212° F. (100° C.). […] At 180° F. (82.2° C.), a peak exotherm of 381° F. (193.9° C.) was obtained in 13.3 minutes. The resultant cured materials were very hard.
The procedure of Example III was used at 212° F. (100° C.) and 240° F. (115.6° C.) where peak exotherms of 414° F. (212.2° C.) and 440° F. (226.7° C.) were obtained after 10.0 and 5.3 minutes respectively using 0.2 gram of the 1-tert.-butylazo-1-cyanocyclohexane. The resultant cured resins were very hard.
The curing procedure and resin are described in Example III.

[2] = High pressure polymerization of ethylene
[3] = Thermal decomposition half-life; assay type: physicochemical
Description: (§1) It produces 179 cc. of gas per gram at 110° C. The following half-life data have been determined:
The following half-life data have been determined by gas evolution technique using trichlorobenzene as the solvent: […]

[4] = Gas volume generated on thermal decomposition; assay type: physicochemical; details: 130° C.
Description: as §1
It produces 146 cc. of gas per gram at 130° C.

[5] = Preliminary toxicological studies / toxicity
[6] = Curing of unsaturated polyester-styrene resin; remark: listed apart in the source
[7] = Emulsion polymerization of ethyl acrylate; details: 3.65 × 10^-^4 moles initiator, 85°-87° C.
Description: An emulsion containing 50 g. of deionized water, 40 g. ethyl acrylate, 4.8 g. Triton X-200, Rohm & Haas anionic surfactant, and 0.0769 g. (3.65 × 10^-^4 moles) α-tert-butylazo-α-methyl-γ-carboxy-butyronitrile (from Example X) was prepared. Approximately 25 g. of the emulsion was placed in a 250 ml. 4-neck round bottom flask equipped with a mechanical stirrer, thermometer and condenser. Nitrogen was passed through the system and the contents of the flask were heated to the reflux temperature of 82° C. When the temperature rose to 90° C., indicating polymerization was occurring, the balance of the emulsion was slowly added from a self-venting addition funnel, maintaining the temperature at 85°-87° C. At the end of the addition the temperature was raised to 95° C. for 5 minutes, a very small amount of hydroquinone added and the reaction cooled to room temperature. The total reaction times was 11/3 hours. The final pH was 3.6. A 5 g. aliquot was weighed into a tared dish and the monomers and water evaporated and the conversion of monomer to polymer was determined to be 94%.
A similar polymerization was run under the same conditions using 3.65 × 10^-^4 moles of the sodium salt of α-tert-butylazo-α-methyl-γ-carboxybutyronitrile as the initiator. The conversion was 92.3% and the final pH was 6.6.

[8] = Polymerization of styrene, dilatometer rates; details: rate at 10% conversion
Description: A solution of styrene containing 5 × 10^-^4 moles per deciliter of alpha-(tert.-butylazo)isobutyronitrile was heated at 85° C. and the change in density, which is a measure of polymer formation, was followed by means of a dilatometer to measure polymerization rates at 5% and 10% conversion to polystyrene. […] Without the alpha-(tert.-butylazo)-isobutyronitrile, the 5 and 10% rates were 0.92 × 10^-^3 moles per liter per minute. Thus, this azo compound initiated the polymerization of styrene at 85° C.
The procedure of Example II was used at 85° C. and 100° C. […] Without the 1-tert.-butylazo-1-cyanocyclohexane, the 5% and 10% rates at 100° C. were 2.81 × 10^-^3 moles per liter per minute.
A solution of styrene containing 5×10^^-4 moles per deciliter of the tert.-alkyl-α-substituted-azoalkane was heated in a constant temperature oil bath (the temperature of the bath depending on the thermal stability of the individual azo compounds) and the change in density, which is a measure of polymer formation, was followed by means of a dilatometer to measure polymerization rates (Rp) at 5% and 10% conversion to polystyrene. The rates obtained at 5% and 10% conversion are recorded in moles per liter per minute in Table LXXXII for the individual azo compounds. Their rate at 10% conversion (f1) is divided by the rate of a standard (f2) at the same temperature and concentration to give an efficiency rating f1 / f2.

[9] = Oxidation of iodide ion to free iodine
[10] = cited from earlier work
[11] = commercial compound, background statement; cited from earlier work
Solubility = assay type: physicochemical; details: petroleum and other organic solvents
[12] = 180° F. (82.2° C.), 1.0 weight per cent
[13] = room temperature, 1.0 weight per cent
[14] = 85° C., standard f2 benzoyl peroxide
[15] = 212° F. (100° C.), 1.0 weight per cent
[16] = 240° F. (115.6° C.), 1.0 weight per cent
[17] = 265° F. (129.4° C.), 1.0 weight per cent
[18] = 180° F. (82.2° C.), 0.128 gram in 20 grams blend
[19] = bath 212° F. (100° C.), 0.128 gram in 20 grams blend

CC(C)(C)N=NC1(C#N)CCCCC1 [Example IV, 1-tert.-butylazo-1-cyanocyclohexane]
hardness of cured resin [1]: very hard | peak exotherm ([1]; 212° F. (100° C.), 0.2 gram): 414 ° F. | time to peak exotherm ([1]; 212° F. (100° C.), 0.2 gram): 10.0 min | peak exotherm ([1]; 240° F. (115.6° C.), 0.2 gram): 440 ° F. | time to peak exotherm ([1]; 240° F. (115.6° C.), 0.2 gram): 5.3 min | initiator performance [2]: especially advantageous initiators | t 1/2 ([3]; 96.3° C.): 10.0 h | t 1/2 ([3]; 100° C.): 6.7 h | t 1/2 ([3]; 110° C.): 2.3 h | t 1/2 ([3]; 120° C.): .75 h | gas produced [4]: 146 cc. of gas per gram | toxicity relative to IXA and its decomposition residue [5]: significantly less toxic

COC1(N=NC(C)(C)C)CCCCC1 [XXXV, 1-t-butylazo-1-methoxycyclohexane]
Minutes to Peak Exotherm ([1]; bath 145° C.): 5.7 min | peak exotherm ([1]; bath 145° C.): 396 ° F | Barcol Hardness ([6]; bath 145° C.): 40

CC(C)(C)N=NC(C)(C#N)CCC(=O)O (stereo not drawn) [sodium salt of α-tert-butylazo-α-methyl-γ-carboxybutyronitrile]
conversion of monomer to polymer [7]: 92.3%

CC(C)(C)N=NC(=O)C(C)(C)C [Example XIX, Pivaloyl tert.-butyldiimide]
hardness of cured resin [1]: very hard | peak exotherm [1, 12]: 289 ° F. | time to peak exotherm [1, 12]: 4.9 min | time to peak exotherm [1, 13]: 34.1 min | temperature at which it evolves nitrogen: 35 °C | peak exotherm [6, 13]: 139 ° F.

COC(C)(C)CC(C)(N=NC(C)(C)C)N=[N+]=[N-] (centres unmarked) [XLIV, 2-t-butylazo-2-azido-4-methyl-4-methoxypentane]
f1 /f2 efficiency rating [8, 14]: 1.19

CC(C)(C)N=NC(C)(C#N)CCC(=O)O (stereo not drawn) [Example X, alpha-tert.-butylazo-alpha-methyl-gammacarboxybutyronitrile]
hardness of cured resin [1]: very hard | peak exotherm [1, 12]: 410 ° F. | time to peak exotherm [1, 12]: 8.5 min | peak exotherm [1, 15]: 422 ° F. | time to peak exotherm [1, 15]: 3.8 min | conversion of monomer to polymer [7]: 94% | temperature at which it begins to evolve nitrogen (onset): 85 °C

CC(C)(C)N=NC1(N=[N+]=[N-])CCCCC1 [XLI, 1-t-butylazo-1-azidocyclohexane]
f1 /f2 efficiency rating ([8]; 100° C., standard f2 t-butyl perbenzoate): 0.58

CC(C)(C)N=NC1(c2ccccc2)CCCCC1 [Example LXIII, 1-t-Butylazo-1-phenylcyclohexane]
Barcol Hardness ([1]; bath 100° C.): 35 | Minutes to Peak Exotherm ([1]; bath 100° C.): 4.8 min | peak exotherm ([1]; bath 100° C.): 435 ° F | f1 /f2 efficiency rating [8, 14]: 1.32

CC(C)(C)N=NC1=CCCCC1 [XXIII, 1(-tert.-butylazo)cyclohexene]
temperature at which it evolves nitrogen: 60 °C | gelling of resin ([6]; room temperature): gelled

COC(C)(C)CC(C)(N=NC(C)(C)C)OC (centres unmarked) [XXXVIII, 2-t-butylazo-4-methyl-2,4-dimethoxypentane]
f1 /f2 efficiency rating ([8]; 115° C., standard f2 di-t-butyl peroxide): 0.38

CC(C)(N=NC(N)=O)c1ccccc1 [XVIII, Tert.-cumylazoformamide]
hardness of cured resin [1]: very hard | peak exotherm [1, 16]: 422 ° F. | time to peak exotherm [1, 16]: 10.3 min | peak exotherm [1, 17]: 454 ° F. | time to peak exotherm [1, 17]: 6.0 min | oxidizing of iodide ion [9]: oxidized iodide ion to free iodine | gas/nitrogen evolution or decomposition (room temperature or on melting): rapidly evolves nitrogen upon melting

CCCCC(C)(CC(C)C)N=NC(C)(C)C (centres unmarked) [Example LXI, 4-t-Butylazo-2,4-dimethyloctane]
Barcol Hardness ([1]; bath 130° C.): 40 | Minutes to Peak Exotherm ([1]; bath 130° C.): 11.1 min | peak exotherm ([6]; bath 130° C.): 382 ° F

CC(C)CC(C)(N=NC(C)(C)C)c1ccccc1 (centres unmarked) [Example LXII, 2-t-Butylazo-2-phenyl-4-methylpentane]
f1 /f2 efficiency rating ([8]; 70° C., standard f2 benzoyl peroxide): 1.41

CC(C)(C#N)N=NC(C)(C)C#N [2, 2'-AZOBISISOBUTYRONITRILE]
solubility ([10]; common organic solvents: aromatic hydrocarbons, dioxane, alcohol, ether, carbon tetrachloride): very low or limited solubility | solubility ([10]; petroleum hydrocarbon solvents): insoluble | toxicity [11]: toxic solid

CC(C)(C)N=NC(C)(C)C#N [Example I, Alpha-(tert.-butylazo)isobutyronitrile]
hardness of cured resin [1]: very hard | peak exotherm [1, 18]: 381 ° F. | time to peak exotherm [1, 18]: 13.3 min | quality of cure ([1]; 212° F. (100° C.)): excellent cure | peak exotherm [1, 19]: 424 ° F. | time to peak exotherm [1, 19]: 4.9 min | initiator performance [2]: especially advantageous initiators | solubility (Solubility): soluble in petroleum solvents | t 1/2 ([3]; 70° C.): 40.5 h | toxicity relative to IXA and its decomposition residue [5]: significantly less toxic
